Assay results reported in patent US20070066801A1 (priority 2003, published 2007).

Experiments:
F. tularensis LVS [1] = assay type: binding, Francisella tularensis
F. novicida [2] = assay type: binding, Francisella novicida
F. novicida [3] = assay type: binding, Francisella novicida; remark: listed apart in the source
F. philomiragia [4] = assay type: binding, Francisella philomiragia
F. tularensis LVS [5] = assay type: binding, Francisella tularensis; remark: listed apart in the source
F. philomiragia [6] = assay type: binding, Francisella philomiragia; remark: listed apart in the source
E. coli DH5α = assay type: binding
[7] = tested on: Staphylococcus aureus (ATCC 6538); assay type: binding
[8] = tested on: Enterococcus hirae (ATCC 8043); assay type: binding

Sequence | ratio of phage binding to F. tularensis LVS compared to F. philomiragia (F. tularensis LVS [1]) | effect of added peptide on binding of phage 4-4-2 to F. novicida (F. novicida [2]) | phage binding to F. tularensis LVS in 0.1×PBS (F. tularensis LVS [1]) | phage binding to F. novicida in 0.1×PBS (F. novicida [3]) | ratio of phage binding to F. novicida compared to F. philomiragia (F. novicida [3]) | phage binding to F. philomiragia in 0.1×PBS (F. philomiragia [4]) | effect of trypsin digestion of the bacterial surface on phage binding to F. tularensis LVS (F. tularensis LVS [5]) | effect of trypsin digestion of the bacterial surface on phage binding to F. philomiragia (F. philomiragia [6]) | also measured
LPISNPLPIKRS [SEQ ID NO: 3] | no specific binding | – | – | – | – | – | – | – | –
SLFWTIPIPSFR [p442S, reference compound] | – | did not inhibit the binding of phage 4-4-2 | – | – | – | – | – | – | –
TGRHTPWPHFMP [OV1, reference compound] | approximately equal binding | – | Neither phage expressing peptides having the sequence of SEQ ID NO: 2 (phage 4-4-2) or SEQ ID NO: 4 (OV1 negative control) bound | Neither phage expressing peptides having the sequence of SEQ ID NO: 2 (phage 4-4-2) or SEQ ID NO: 4 (OV1 negative control) bound | approximately equal binding | Neither phage expressing peptides having the sequence of SEQ ID NO: 2 (phage 4-4-2) or SEQ ID NO: 4 (OV1 negative control) bound | increase in binding after trypsin treatment | increase in binding after trypsin treatment | phage binding to F. novicida in Tris-Mg buffer (F. novicida [3]): equal to or greater than the binding of phage 4-4-2; phage binding to F. philomiragia in 1×PBS buffer (F. philomiragia [4]): equal to the binding of phage 4-4-2; phage binding to F. philomiragia in Tris-Mg buffer (F. philomiragia [4]): equal to or greater than the binding of phage 4-4-2
TSITPWFFLSRP [p442] | – | decreased binding of phage 4-4-2 | – | – | – | – | – | – | –
TSITPWFFLSRP [phage 4-4-2] | > 100 fold | – | Neither phage expressing peptides having the sequence of SEQ ID NO: 2 (phage 4-4-2) or SEQ ID NO: 4 (OV1 negative control) bound | Neither phage expressing peptides having the sequence of SEQ ID NO: 2 (phage 4-4-2) or SEQ ID NO: 4 (OV1 negative control) bound | > 100 fold | Neither phage expressing peptides having the sequence of SEQ ID NO: 2 (phage 4-4-2) or SEQ ID NO: 4 (OV1 negative control) bound | distinct trypsin sensitivity | small but reproducible increase in binding | binding specificity of phage in Tris-Mg buffer (F. tularensis LVS [1]): showed specificity for the identification of F. tularensis LVS; effect of growth on TSB (versus Chamberlain minimal medium) on phage binding to F. tularensis LVS (F. tularensis LVS [1]): stimulatory effect observed with F. tularensis LVS was not as great; number of phage binding F. tularensis LVS in 1×PBS buffer (versus Tris-Mg) (F. tularensis LVS [1]): not decreased significantly; amount of phage binding to F. novicida in 1×PBS buffer (versus Tris-Mg) (F. novicida [3]): increased; effect of growth on TSB (versus Chamberlain minimal medium) on phage binding to F. novicida (F. novicida [3]): stimulated binding; level of binding to E. coli, fold lower than phage binding to F. novicida and F. tularensis LVS (E. coli DH5α): 20-100 fold; level of binding to S. aureus, fold lower than phage binding to F. novicida and F. tularensis LVS [7]: 20-100 fold; level of binding to E. hirae, fold lower than phage binding to F. novicida and F. tularensis LVS [8]: 20-100 fold; phage binding to F. tularensis LVS after trypsin digestion, relative to no trypsin (F. tularensis LVS [5]): 10-20%
